Drawing on US9394289B2, “Inhibitors of c-fms kinase” (Janssen Pharmaceutica NV, priority 2006, dated 2016), this text covers IC50 for 15 compounds.

One assay has as its target c-fms (Homo sapiens (Human), UniProt P07333). The assay can be described thus: Autophosphorylation fluorescence polarization competition immunoassay for c-fms inhibition. Format: biochemical. Particulars: averages of three independent measurements; table head says 1 nM c-fms, method says 10 nM c-fms, 1 mM ATP; read-out: 1 nM c-fms; peptide Pi assay IC-50. As to the method: Fluorescence Polarization Competition Immunoassay
The assay buffer used was 100 mM 4-(2-hydroxyethyl)piperazine 1-ethanesulfonic acid (HEPES), pH 7.5, 1 mM 1,4-dithio-DL-threitol (DTT), 0.01% (v/v) Tween-20. Compounds were diluted in assay buffer containing 4% dimethylsulfoxide (DMSO) just prior to the assay. To each well, 5 μL of compound were added followed by the addition of 3 μL of a mix containing 33 nM c-fms (Johnson & Johnson PRD) and 16.7 mM MgCl2 (Sigma) in assay buffer. The kinase reaction was initiated by adding 2 μL of 5 mM ATP (Sigma) in assay buffer. […] Control reactions were ran in each plate: in positive and negative control wells, assay buffer (made 4% in DMSO) was substituted for the compound; in addition, positive control wells received 1.2 μL of 50 mM ethylenediaminetetraaceticacid (EDTA).
The plates were incubated at room temperature for 45 min. At the end of the incubation, the reaction was quenched with 1.2 μL of 50 mM EDTA (EDTA was not added to the positive control wells at this point; see above). Following a 5-min incubation, each well received 10 μL of a 1:1:3 mixture of anti-phosphotyrosine antibody, 10×, PTK green tracer, 10× (vortexed), FP dilution buffer, respectively (all from PanVera, cat. #P2837). The plate was covered, incubated for 30 min at room temperature and the fluorescence polarization was read on the Analyst. The instrument settings were: 485 nm excitation filter; 530 nm emission filter; Z height: middle of well; G factor: 0.93. […] The reported IC50 values are averages of three independent measurements.

Assay [1] relates to mouse bone-marrow derived macrophages (BMDM). The assay can be described thus: CSF-1-driven mouse bone-marrow derived macrophages proliferation assay (BrDU incorporation). Particulars: 30 hrs culture, read-out: mCSF driven proliferation BMDM (Mouse) IC-50. The class given is cell-based. As to the method:
CSF-1-Driven Mouse Bone-Marrow Derived Macrophages Assay
Macrophages are derived by culturing mouse bone marrow in alpha-MEM supplemented with 10% FCS and 50 ng/ml recombinant mouse CSF-1 in bacteriologic dishes. On the sixth day, macrophages are detached from dishes, washed, and resuspended to 0.05 million cells/ml in alpha-MEM containing 10% FCS. One hundred ul of cell suspension are distributed per well into 96 well culture plates. Wells are further supplemented with the addition of 50 ul media containing 15 ng/ml CSF-1, 3 uM Indomethacin, and 3× of a dilution series of test compounds. The cells are cultured for 30 hrs at 37 degrees and 5% CO2. During the final six hours, cultures are supplemented with an additional 30 ul of media containing a 1:500 dilution of bromodeoxyuridine (BrDU). At the end of the culture period, the plates are spun at 1000 RPM for 1 minute and 130 ul of media is removed with a pipet and replaced with 150 ul of fixative solution for 1 hour @ room temperature. The fixative is then dispelled from the plates and the plates allowed to air dry. Incorporation of BrDU into the fixed, dried cells is quantified using a specific ELISA.

Read-outs that look alike come from different tables or passages of the source. Where only a bound is given, the exact number is not on record here.

Sequence of c-fms (P07333 20-972): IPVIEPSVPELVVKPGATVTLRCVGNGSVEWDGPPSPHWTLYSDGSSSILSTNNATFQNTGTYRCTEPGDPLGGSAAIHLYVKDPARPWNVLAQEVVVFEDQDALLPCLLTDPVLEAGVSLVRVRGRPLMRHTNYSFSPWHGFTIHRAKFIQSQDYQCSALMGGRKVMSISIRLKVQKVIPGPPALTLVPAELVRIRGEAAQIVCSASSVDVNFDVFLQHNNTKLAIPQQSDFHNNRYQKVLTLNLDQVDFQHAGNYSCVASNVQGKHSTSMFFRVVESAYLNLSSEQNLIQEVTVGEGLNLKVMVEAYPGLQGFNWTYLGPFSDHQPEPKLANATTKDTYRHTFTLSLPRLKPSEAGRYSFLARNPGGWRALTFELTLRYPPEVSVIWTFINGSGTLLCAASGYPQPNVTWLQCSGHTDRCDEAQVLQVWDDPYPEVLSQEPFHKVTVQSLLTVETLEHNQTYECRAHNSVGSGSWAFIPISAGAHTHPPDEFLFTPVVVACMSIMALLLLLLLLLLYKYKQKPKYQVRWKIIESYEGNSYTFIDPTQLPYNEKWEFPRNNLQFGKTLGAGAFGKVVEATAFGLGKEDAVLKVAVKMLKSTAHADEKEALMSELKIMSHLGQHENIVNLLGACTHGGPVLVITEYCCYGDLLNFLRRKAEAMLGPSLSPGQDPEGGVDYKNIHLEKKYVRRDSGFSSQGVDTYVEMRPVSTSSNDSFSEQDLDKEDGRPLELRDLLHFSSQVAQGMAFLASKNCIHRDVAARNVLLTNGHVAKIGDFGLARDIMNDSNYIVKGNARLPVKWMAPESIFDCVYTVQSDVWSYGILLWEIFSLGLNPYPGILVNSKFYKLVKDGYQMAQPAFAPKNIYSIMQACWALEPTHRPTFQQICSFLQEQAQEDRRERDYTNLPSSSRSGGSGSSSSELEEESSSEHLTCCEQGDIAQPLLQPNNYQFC

Turning to `C[C@@H]1CC(O)(c2ccc(NC(=O)c3nc(C#N)c[nH]3)c(C3=CCC(C)(C)CC3)c2)C[C@H](C)O1` (stereo partly drawn) [Example 30, 4-Cyano-1H-imidazole-2-carboxylic acid [2-(4,4-dimethyl-cyclohex-1-enyl)-4-(cis-4-hydroxy-cis-2,6-dimethyl-tetrahydro-pyran-4-yl)-phenyl]-amide], the results for the IC50 (at c-fms; in assay [1]) were 3.2 nM and 7 nM, respectively.
As for `C[C@@H]1CC(O)(c2ccc(NC(=O)c3nc(C#N)c[nH]3)c(C3=CCC(C)(C)CC3)c2)C[C@H](C)O1` (stereo partly drawn) [Example 31, 4-cyano-1H-imidazole-2-carboxylic acid [2-(4,4-dimethyl-cyclohex-1-enyl)-4-(trans-4-hydroxy-cis-2,6-dimethyl-tetrahydro-pyran-4-yl)-phenyl]-amide], the values for the IC50 (at c-fms; in assay [1]) were 1.4 nM and 3 nM, respectively.
For the compound `C[C@@H]1CC(O)(c2ccc(NC(=O)c3nc(C#N)c[nH]3)c(C3=CCC(C)(C)CC3)n2)C[C@H](C)O1` (stereo partly drawn) [Example 32, 4-Cyano-1H-imidazole-2-carboxylic acid [2-(4,4-dimethyl-cyclohex-1-enyl)-6-(4-hydroxy-Cis-2,6-dimethyl-tetrahydro-pyran-4-yl)-pyridin-3-yl]-amide], the IC50 at c-fms was 3.2 nM; in assay [1] (Mus musculus, BMDM), 19 nM.
As for `CC1(C)CC=C(c2nc(C3(O)CCOCC3)ccc2NC(=O)c2nc(C#N)c[nH]2)CC1` [Example 33, 4-Cyano-1H-imidazole-2-carboxylic acid [2-(4,4-dimethyl-cyclohex-1-enyl)-6-(4-hydroxy-tetrahydro-pyran-4-yl)-pyridin-3-yl]-amide], the IC50 at c-fms came out at 3.7 nM; in assay [1] (Mus musculus, BMDM), 33 nM.
In the case of `CS(=O)(=O)C1(c2ccc(NC(=O)c3ncc(C#N)[nH]3)c(C3=CCCCC3)c2)CCOCC1` [Example 34, 5-Cyano-1H-imidazole-2-carboxylic acid [2-cyclohex-1-enyl-4-(4-methanesulfonyl-tetrahydro-pyran-4-yl)-phenyl]-amide], the IC50 came out at 1.5 nM at c-fms and 17.2 nM in assay [1] (Mus musculus, BMDM).
As to `CC(=O)N1CCC(O)(c2ccc(NC(=O)c3nc(C#N)c[nH]3)c(C3=CCC(C)(C)CC3)c2)CC1` [Example 35, 4-Cyano-1H-imidazole-2-carboxylic acid [4-(1-acetyl-4-hydroxy-piperidin-4-yl)-2-(4,4-dimethyl-cyclohex-1-enyl)-phenyl]-amide], the IC50 was found to be 0.7 nM on c-fms and 5.8 nM in assay [1] (Mus musculus, BMDM).
For the compound `CC1(C)CC=C(c2cc(C3(C#N)CCS(=O)(=O)CC3)ccc2NC(=O)c2nc(C#N)c[nH]2)CC1` [Example 87, 4-Cyano-1H-imidazole-2-carboxylic acid [4-(4-cyano-1,1-dioxo-hexahydro-1λ^6-thiopyran-4-yl)-2-(4,4-dimethyl-cyclohex-1-enyl)-phenyl]-amide], the IC50 at c-fms came to 1.1 nM; in assay [1] (Mus musculus, BMDM) it was 8.2 nM.
The like results for `CC1(C)CC=C(c2cc(C3(O)CC(C)(C)OC(C)(C)C3)ccc2NC(=O)c2nc(C#N)c[nH]2)CC1` [Example 88, 4-Cyano-1H-imidazole-2-carboxylic acid [2-(4,4-dimethyl-cyclohex-1-enyl)-4-(4-hydroxy-2,2,6,6-tetramethyl-tetrahydro-pyran-4-yl)-phenyl]-amide] were, in that order, 2.4 nM and 6.4 nM.
As for `CON1C(C)(C)CC(O)(c2ccc(NC(=O)c3nc(C#N)c[nH]3)c(C3=CCC(C)(C)CC3)c2)CC1(C)C` [Example 89, 4-Cyano-1H-imidazole-2-carboxylic acid [2-(4,4-dimethyl-cyclohex-1-enyl)-4-(4-hydroxy-1-methoxy-2,2,6,6-tetramethyl-piperidin-4-yl)-phenyl]-amide], the IC50 came to 13 nM at c-fms and 20 nM in assay [1] (Mus musculus, BMDM).
Take `CC1(C)CC=C(c2cc(C3(O)CCN(CC(F)(F)F)CC3)ccc2NC(=O)c2nc(C#N)c[nH]2)CC1` [Example 90, 4-Cyano-1H-imidazole-2-carboxylic acid {2-(4,4-dimethyl-cyclohex-1-enyl)-4-[4-hydroxy-1-(2,2,2-trifluoro-ethyl)-piperidin-4-yl]-phenyl}-amide]: the IC50 on c-fms came to 6.5 nM; in assay [1] (Mus musculus, BMDM), 40 nM.
Turning to `CC1(C)CC=C(c2cc(C3(O)CC(C)(C)N(CC(F)(F)F)C(C)(C)C3)ccc2NC(=O)c2nc(C#N)c[nH]2)CC1` [Example 91, 4-Cyano-1H-imidazole-2-carboxylic acid {2-(4,4-dimethyl-cyclohex-1-enyl)-4-[4-hydroxy-2,2,6,6-tetramethyl-1-(2,2,2-trifluoro-ethyl)-piperidin-4-yl]-phenyl}-amide], the IC50 on c-fms was about 210 nM; in assay [1] (Mus musculus, BMDM) it was 61 nM.
The like results for `CC1(C)CC=C(c2cc(C3(O)CC4CCC(C3)O4)ccc2NC(=O)c2nc(C#N)c[nH]2)CC1` (stereo not drawn) [Example 92, 4-Cyano-1H-imidazole-2-carboxylic acid [2-(4,4-dimethyl-cyclohex-1-enyl)-4-(3-hydroxy-8-oxa-bicyclo[3.2.1]oct-3-yl)-phenyl]-amide] were, in that order, 2.2 nM and 12 nM.
As to `CC1(C)CC=C(c2cc(C3(O)CC4(C)CCC(C)(C3)O4)ccc2NC(=O)c2nc(C#N)c[nH]2)CC1` (stereo not drawn) [Example 93, 4-Cyano-1H-imidazole-2-carboxylic acid [2-(4,4-dimethyl-cyclohex-1-enyl)-4-(3-hydroxy-1,5-dimethyl-8-oxa-bicyclo[3.2.1]oct-3-yl)-phenyl]-amide], the IC50 turned out to be 2.9 nM at c-fms and 8.9 nM in assay [1] (Mus musculus, BMDM).
As to `CC1(C)CC=C(c2cc(C3(C#N)C[C@]4(C)CC[C@](C)(C3)O4)ccc2NC(=O)c2nc(C#N)c[nH]2)CC1` (stereo partly drawn) [Example 94, 4-Cyano-1H-imidazole-2-carboxylic acid [4-(3-cyano-1,5-dimethyl-8-oxa-bicyclo[3.2.1]oct-3-yl)-2-(4,4-dimethyl-cyclohex-1-enyl)-phenyl]-amide], the IC50 at c-fms was 82 nM; in assay [1] (Mus musculus, BMDM), over 100 nM.
Turning to `CC1(C)CC=C(c2cc(C3(C#N)CC(C)(C)OC(C)(C)C3)ccc2NC(=O)c2nc(C#N)c[nH]2)CC1` [Example 95, 4-Cyano-1H-imidazole-2-carboxylic acid [4-(4-cyano-2,2,6,6-tetramethyl-tetrahydro-pyran-4-yl)-2-(4,4-dimethyl-cyclohex-1-enyl)-phenyl]-amide], the IC50 is 26 nM on c-fms and 29 nM in assay [1] (Mus musculus, BMDM).
